Assay results as given in patent publication US20240325398A1, “COMBINATION THERAPIES” (Infinity Pharmaceuticals, Inc., priority 2014, published 2024).

Legend:
OCI-Ly7 = test: Combination study, ATPLite 72 h, dose matrix (Synergy Score, CI50); conditions: combination with Compound 1, 72 h
SUDHL6 = test: Compound 1 with dexamethasone, CellTiter-Glo viability 72 h, combination index; format: cell-based; conditions: combination with Compound 1; SUDHL6 cells; CellTiter-Glo 72 h; FIG. 12
Protocol: (§1) The effects of Compound 1 with dexamethasone were examined in a panel of cell lines. Cells were cultured and assayed as follows. Compound 1 was serially diluted with cell culture medium and various DMSO concentrations. The top concentration of Compound 1 exposed to cells was 3 uM for cell lines other than WSU-NHL and DOHH2. For WSU-NHL and DOHH2 cell lines, the top concentration of Compound 1 exposed to the cells was 0.3 uM. Dexamethasone was serially diluted in culture media and phosphate buffered saline (PBS). The top concentration of dexamethasone used on cells was 3 uM. Cells were at least 73% viable and were counted and diluted for plating at a density of about 92,000 cell/mL, 130 uL cells per well in 96 well plates for SUDHL6, Karpas 422, SUDHL4, WSU-NHL, RL, and DOHH2 cell lines. The SUDHL10 cell line was plated at a density of about 46,000 cells/mL, 130 uL cells per well in 96 well plates.
(§2) Various concentrations of Compound 1 and various combinations of dexamethasone were added to various wells of cells. Single agents (Compound 1 or dexamethasone alone) were also added to some wells of cells. Cells were incubated with compounds for 72 hours. To assay for effects of the compounds on cell viability, a CellTiter-Glo® luminescent cell viability assay (commercially available) was used. To each plate of cells, 100 uL CellTiter-Glo reagent was added, incubated, and luminescence quantified using a […].
The result for cell line SUDHL6 is depicted in FIG. 12 and in Table 12. […] Table 12 depicts combination index (CI) values for different combinations of dexamethasone/Compound 1 concentrations.

DOHH-2 = test: Combination study, ATPLite 72 h, dose matrix (Synergy Score, CI50); conditions: combination with Compound 1, 72 h
WSU-NHL = test: as above; conditions: combination with Compound 1, 72 h
RL = test: as above; conditions: combination with Compound 1, 72 h
KARPAS-422 = test: as above; conditions: combination with Compound 1, 72 h
DOHH2 = test: Compound 1 with dexamethasone, CellTiter-Glo viability 72 h, combination index; format: cell-based; conditions: combination with Compound 1; DOHH2 cells; CellTiter-Glo 72 h; FIG. 11
Protocol: as §1, §2
The results for cell line DOHH2 are depicted in FIG. 11 and Table 11. […] Table 11 depicts combination index (CI) values for different combinations of dexamethasone/Compound 1 concentrations.

## C[C@@H]1C[C@H]2[C@@H]3CCC4=CC(=O)C=C[C@]4(C)[C@@]3(F)[C@@H](O)C[C@]2(C)[C@@]1(O)C(=O)CO [dexamethasone, (8S,9R,10S,11S,13S,14S,16R,17R)-9-Fluoro-11,17-dihydroxy-17-(2-hydroxyacetyl)-10,13,16-trimethyl-6,7,8,9,10,11,12,13,14,15,16,17-dodecahydro-3H-cyclopenta[a]phenanthren-3-one]
OCI-Ly7
  CI50 growth inhibition: S (S=0.01 to <0.5)
  CI50 inhibition: S (S=0.01 to <0.5)
  Synergy Score growth inhibition: A3 (A3=>3)
  Synergy Score inhibition: A3 (A3=>3)
SUDHL6
  synergy of the combination: synergy
DOHH-2
  CI50 growth inhibition: S (S=0.01 to <0.5)
  CI50 inhibition: T (T=0.5 to <0.7)
  Synergy Score growth inhibition: A3 (A3=>3)
  Synergy Score inhibition: A3 (A3=>3)
WSU-NHL
  CI50 inhibition: T (T=0.5 to <0.7)
  Synergy Score growth inhibition: A3 (A3=>3)
  Synergy Score inhibition: A3 (A3=>3)
RL
  CI50 growth inhibition: S (S=0.01 to <0.5)
  CI50 inhibition: S (S=0.01 to <0.5)
  Synergy Score growth inhibition: A3 (A3=>3)
  Synergy Score inhibition: A3 (A3=>3)
KARPAS-422
  CI50 growth inhibition: U (U=0.7 to <1)
  CI50 inhibition: U (U=0.7 to <1)
  Synergy Score growth inhibition: A3 (A3=>3)
  Synergy Score inhibition: A3 (A3=>3)
DOHH2
  synergy of the combination: synergy
